{"source": "patent US11555032B2", "about": "“Isoxazole derivatives as FXR agonists and methods of use thereof” (Enanta Pharmaceuticals, Inc., priority 2019, dated 2023)", "data": [{"target": "T1, human FXR (NR1H4) (Homo sapiens, UniProt Q96RI1)", "T1 construct": "host or cells: CHO (Chinese hamster ovary) reporter cells", "T1 sequence (Q96RI1 1-486)": "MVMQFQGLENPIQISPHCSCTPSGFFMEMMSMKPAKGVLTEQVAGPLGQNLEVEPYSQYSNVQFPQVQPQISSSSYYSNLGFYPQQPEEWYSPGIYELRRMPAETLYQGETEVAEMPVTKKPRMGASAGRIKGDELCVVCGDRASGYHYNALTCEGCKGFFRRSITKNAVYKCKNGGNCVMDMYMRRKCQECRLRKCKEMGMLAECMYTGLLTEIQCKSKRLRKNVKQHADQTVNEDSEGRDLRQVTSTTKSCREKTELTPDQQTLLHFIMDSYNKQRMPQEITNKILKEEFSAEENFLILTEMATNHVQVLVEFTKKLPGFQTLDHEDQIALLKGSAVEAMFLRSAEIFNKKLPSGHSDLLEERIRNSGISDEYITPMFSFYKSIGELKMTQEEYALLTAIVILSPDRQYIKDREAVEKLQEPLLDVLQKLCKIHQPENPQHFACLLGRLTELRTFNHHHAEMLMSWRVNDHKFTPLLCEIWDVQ", "experiment": "Human FXR (NRIH4) Assay, luciferase reporter", "format": "cell-based", "settings": "CHO reporter cells expressing human NR1H4, luciferase, 22 hours incubation", "from_the_text": "Determination of a ligand mediated Gal4 promoter driven transactivation to quantify ligand binding mediated activation of FXR. FXR Reporter Assay kit purchased from Indigo Bioscience (Catalogue number: IB00601) to determine the potency and efficacy of compound developed by Enanta that can induce FXR activation. The principle application of this reporter assay system is to quantify functional activity of human FXR. The assay utilizes non-human mammalian cells, CHO (Chinese hamster ovary) cells engineered to express human NR1H4 protein (referred to as FXR). Reporter cells also incorporate the cDNA encoding beetle luciferase which catalyzes the substrates and yields photon emission. Luminescence intensity of the reaction is quantified using a plate-reading luminometer, Envision. Reporter Cells include the luciferase reporter gene functionally linked to an FXR responsive promoter. Thus, quantifying changes in luciferase expression in the treated reporter cells provides a sensitive surrogate measure of the changes in FXR activity. EC50 and efficacy (normalize to CDCA set as 100%) is determined by XLFit. The assay is according to the manufacturer's instructions. In brief, the assay was performed in white, 96 well plates using final volume of 100 ul containing cells with different doses of compounds. Retrieve Reporter Cells from −80° C. storage. Perform a rapid thaw of the frozen cells by transferring a 10 ml volume of 37° C. cell recovery medium into the tube of frozen cells. Recap the tube of Reporter Cells and immediately place it in a 37° C. water bath for 5-10 minutes. Retrieve the tube of Reporter Cell Suspension from the water bath. Sanitize the outside surface of the tube with a 70% alcohol swab, and then transfer it into the cell culture hood. Dispense 90 μl of cell suspension into each well of the 96-well Assay Plate. Transfer the plate into 37° C. incubator, allowing the cells adherent to the bottom of the well. Dilute compounds in Dilution Plate (DP), and administrate to cells at Assay Plate (AP). DMSO content of the samples was kept at 0.2%. Cells were incubated for additional 22 hours before luciferase activities were measured. Thirty minutes before intending to quantify FXR activity, remove Detection Substrate and Detection Buffer from the refrigerator and place them in a low-light area so that they may equilibrate to room temperature. Remove the plate's lid and discard all media contents by ejecting it into an appropriate waste container. Gently tap the inverted plate onto a clean absorbent paper towel to remove residual droplets. Cells will remain tightly adhered to well bottoms. Add 100 μl of luciferase detection reagent to each well of the assay plate. Allow the assay plate to rest at room temperature for at least 5 minutes following the addition of LDR. Set the instrument (Envision) to perform a single 5 second “plate shake” prior to reading the first assay well. Read time may be 0.5 second (500 mSec) per well. EC50 and Efficacy (normalize to CDCA set as 100%) is determined by XLFit.\nThe efficacy was normalized to CDCA set as 100%.", "units": {"EC50": "nM"}, "values": [{"smiles": "CC(C)Oc1cc(C(=O)O)cc2sc(NC3[C@@H]4CC[C@H]3CC(OCc3c(-c5c(Cl)cccc5Cl)noc3C3CC3)C4)nc12", "note": "(stereo partly drawn) [Example 1, 2-(((1R,3r,5S,8s)-3-((5-cyclopropyl-3-(2,6-dichlorophenyl)isoxazol-4-yl)methoxy)bicyclo[3.2.1]octan-8-yl)amino)-4-isopropoxybenzo[d]thiazole-6-carboxylic acid]", "EC50": "< 25"}, {"smiles": "CC(C)Oc1cc(C(=O)O)cc2sc(NC3C4CCC3CC(OCc3c(-c5c(Cl)cccc5Cl)noc3C3CC3)C4)nc12", "note": "[Example 2, 2-(((1R,3r,5S,8r)-3-((5-cyclopropyl-3-(2,6-dichlorophenyl)isoxazol-4-yl)methoxy)bicyclo[3.2.1]octan-8-yl)amino)-4-isopropoxybenzo[d]thiazole-6-carboxylic acid]", "EC50": "< 25"}, {"smiles": "O=C(O)c1ccc2c(c1)CN(C1C3CCC1CC(OCc1c(-c4c(Cl)cccc4Cl)noc1C1CC1)C3)C2", "note": "(stereo not drawn) [Example 2-2]", "EC50": "< 25"}, {"smiles": "CC(C)Oc1cc(C(=O)O)cc2sc(NC3C4CCC3CC(OCc3c(-c5ccccc5OC(F)(F)F)noc3C3CC3)C4)nc12", "note": "[Example 3, 2-(((1R,3r,5S,8s)-3-((5-cyclopropyl-3-(2-(trifluoromethoxy)phenyl)isoxazol-4-yl)methoxy)bicyclo[3.2.1]octan-8-yl)amino)-4-isopropoxybenzo[d]thiazole-6-carboxylic acid]", "EC50": "< 25"}, {"smiles": "O=C(O)c1cc(F)c2nc(NC3C4CCC3CC(OCc3c(-c5ccccc5OC(F)(F)F)noc3C3CC3)C4)sc2c1", "note": "(stereo not drawn) [Example 3-2]", "EC50": "< 25"}, {"smiles": "O=C(O)c1ccnc(NC2C3CCC2CC(OCc2c(-c4ccccc4OC(F)(F)F)noc2C2CC2)C3)c1", "note": "(stereo not drawn) [Example 3-3]", "EC50": "25 to 500"}, {"smiles": "O=C(O)c1cccc2nc(NC3C4CCC3CC(OCc3c(-c5ccccc5OC(F)(F)F)noc3C3CC3)C4)ccc12", "note": "(stereo not drawn) [Example 3-4]", "EC50": "< 25"}, {"smiles": "O=C(O)c1cnc(NC2C3CCC2CC(OCc2c(-c4ccccc4OC(F)(F)F)noc2C2CC2)C3)c(C(F)(F)F)c1", "note": "(stereo not drawn) [Example 3-5]", "EC50": "25 to 500"}, {"smiles": "O=C(O)c1ccc2nc(NC3C4CCC3CC(OCc3c(-c5ccccc5OC(F)(F)F)noc3C3CC3)C4)ccc2c1", "note": "(stereo not drawn) [Example 3-6]", "EC50": "< 25"}, {"smiles": "O=C(O)c1cccc2nc(NC3C4CCC3CC(OCc3c(-c5ccccc5OC(F)(F)F)noc3C3CC3)C4)cnc12", "note": "(stereo not drawn) [Example 3-7]", "EC50": "< 25"}, {"smiles": "O=C(O)c1cc2sc(NC3C4CCC3CC(OCc3c(-c5ccccc5OC(F)(F)F)noc3C3CC3)C4)nc2c(F)c1F", "note": "(stereo not drawn) [Example 3-9]", "EC50": "< 25"}, {"smiles": "O=C(O)c1ccc2nc(NC3C4CCC3CC(OCc3c(-c5ccccc5OC(F)(F)F)noc3C3CC3)C4)ncc2c1", "note": "(stereo not drawn) [Example 3-12]", "EC50": "< 25"}, {"smiles": "O=C(O)c1cccc2nc(NC3C4CCC3CC(OCc3c(-c5ccccc5OC(F)(F)F)noc3C3CC3)C4)ncc12", "note": "(stereo not drawn) [Example 3-13]", "EC50": "< 25"}, {"smiles": "CC(C)Oc1cc(C(=O)O)cc2sc(N[C@H]3C[C@@H]4C[C@H]3C[C@@H]4OCc3c(-c4c(Cl)cccc4Cl)noc3C3CC3)nc12", "note": "[Example 4, 2-(((1S,2S,4S,5S)-5-((5-cyclopropyl-3-(2,6-dichlorophenyl)isoxazol-4-yl)methoxy)bicyclo[2.2.1]heptan-2-yl)amino)-4-isopropoxybenzo[d]thiazole-6-carboxylic acid]", "EC50": "< 25"}, {"smiles": "CC(C)Oc1cc(C(=O)O)cc2sc(N[C@H]3C[C@@H]4C[C@H]3C[C@@H]4OCc3c(-c4ccccc4OC(F)(F)F)noc3C3CC3)nc12", "note": "[Example 5]", "EC50": "25 to 500"}, {"smiles": "CC(C)Oc1cc(C(=O)O)cc2sc(N[C@@H]3C[C@@H]4C[C@H]3C[C@@H]4OCc3c(-c4ccccc4OC(F)(F)F)noc3C3CC3)nc12", "note": "[Example 6]", "EC50": "25 to 500"}, {"smiles": "CC(C)Oc1cc(C(=O)O)cc2sc(N[C@@H]3C[C@H]4C[C@@H]3[C@@H](OCc3c(-c5c(Cl)cccc5Cl)noc3C3CC3)C4)nc12", "note": "[Example 7]", "EC50": "< 25"}, {"smiles": "NS(=O)(=O)c1ccc2nc(NC3C4CCC3CC(OCc3c(-c5ccccc5OC(F)(F)F)noc3C3CC3)C4)sc2c1", "note": "[Example 8, 2-(((1R,3r,5S,8s)-3-((5-cyclopropyl-3-(2-(trifluoromethoxy)phenyl)isoxazol-4-yl)methoxy)bicyclo[3.2.1]octan-8-yl)amino)benzo[d]thiazole-6-sulfonamide]", "EC50": "25 to 500"}]}]}
